Results reported in article PMC7178819, “6,7-Dimethoxy-2-phenethyl-1,2,3,4-tetrahydroisoquinoline amides and corresponding ester isosteres as multidrug resistance reversers” (Journal of Enzyme Inhibition and Medicinal Chemistry, 2020).
Marks after values point to notes of the source that are not given here.

Tests used:
P-gp = target: T1, P-gp (Homo sapiens, UniProt P08183); test: Inhibition of Calcein-AM transport in MDCK-MDR1 cells; assay type: cell-based; details: for EC50: Calcein-AM, MDCK-MDR1 cells, mean ± SEM of two experiments; for inhibition at 30 min, 10 µM: human, MDCK-MDR1 cells (overexpressing P-gp), probe Calcein-AM (2.5 µM), at 10 µM, read-out: P-gp maximum inhibition
T1 construct: expressed in transfected cells; host or cells: MDCK-MDR1 (Madin-Darby Canine Kidney cells, gift of Prof. P. Borst, NKI-AVL)
T1 sequence (P08183 whole entry): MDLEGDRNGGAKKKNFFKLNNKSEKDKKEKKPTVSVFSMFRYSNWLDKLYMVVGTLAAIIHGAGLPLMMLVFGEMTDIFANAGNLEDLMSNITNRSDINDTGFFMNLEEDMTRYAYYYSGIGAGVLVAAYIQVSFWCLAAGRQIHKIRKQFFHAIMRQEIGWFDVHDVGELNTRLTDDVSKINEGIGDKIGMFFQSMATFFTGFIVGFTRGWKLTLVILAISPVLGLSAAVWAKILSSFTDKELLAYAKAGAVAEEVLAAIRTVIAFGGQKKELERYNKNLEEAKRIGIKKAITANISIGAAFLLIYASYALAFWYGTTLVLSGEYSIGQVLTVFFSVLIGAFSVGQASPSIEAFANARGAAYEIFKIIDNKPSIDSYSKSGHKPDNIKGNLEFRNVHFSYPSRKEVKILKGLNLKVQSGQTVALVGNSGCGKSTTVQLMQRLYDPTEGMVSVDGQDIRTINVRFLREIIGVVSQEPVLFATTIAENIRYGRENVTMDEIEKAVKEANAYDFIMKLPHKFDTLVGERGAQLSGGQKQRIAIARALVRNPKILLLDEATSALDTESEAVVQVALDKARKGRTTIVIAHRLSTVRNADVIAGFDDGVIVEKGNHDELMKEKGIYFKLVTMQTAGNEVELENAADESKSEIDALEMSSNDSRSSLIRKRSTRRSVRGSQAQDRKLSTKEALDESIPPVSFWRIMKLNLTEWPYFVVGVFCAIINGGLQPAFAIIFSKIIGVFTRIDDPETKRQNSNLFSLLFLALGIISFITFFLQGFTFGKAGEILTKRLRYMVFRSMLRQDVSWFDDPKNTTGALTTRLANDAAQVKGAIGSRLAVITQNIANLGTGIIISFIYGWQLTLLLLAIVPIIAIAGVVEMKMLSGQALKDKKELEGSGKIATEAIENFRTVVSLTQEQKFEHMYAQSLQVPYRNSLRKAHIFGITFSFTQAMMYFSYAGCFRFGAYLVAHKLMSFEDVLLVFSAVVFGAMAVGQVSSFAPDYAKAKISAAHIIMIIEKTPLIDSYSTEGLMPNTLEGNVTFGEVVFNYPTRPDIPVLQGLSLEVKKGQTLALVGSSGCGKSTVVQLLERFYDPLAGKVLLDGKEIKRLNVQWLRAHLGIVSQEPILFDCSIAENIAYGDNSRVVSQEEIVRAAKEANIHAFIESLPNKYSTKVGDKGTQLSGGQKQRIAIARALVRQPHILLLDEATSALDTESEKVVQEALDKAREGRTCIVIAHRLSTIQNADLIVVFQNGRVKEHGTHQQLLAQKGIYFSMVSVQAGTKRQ
Procedure, shortened: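 Confluent MDCK-MDR1 monolayers preincubated 30 min at 37 °C with compound (1 nM-100 µM), then 2.5 µM Calcein-AM (final) 30 min. After ice-cold PBS washes, fluorescence read (ex 485/em 535 nm); EC50 from % fluorescence increase over untreated basal versus log dose.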

[1] = Apparent permeability (Papp) determination (BA/AB) in Caco-2 cell monolayer; assay type: in vitro ADME; details: human, Caco-2 monolayer
Procedure, shortened: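 Caco-2 monolayers cultured 21 days (TEER monitored, >1000 Ω optimal); compounds added at 100 µM in HBSS to the filter well, 120 min at 37 °C, then apical and basolateral sides sampled. Papp ratio BA/AB computed; ratio >2 taken as indicating P-gp substrate.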

MRP1 = target: T2, MRP1 (Homo sapiens, UniProt P33527); test: Inhibition of Calcein-AM efflux in MDCK-MRP1 cells; assay type: cell-based; details: for EC50: Calcein-AM, NA: not active; for MRP1, percentage of the effect: at a concentration of 100 μM
T2 construct: expressed in transfected cells; host or cells: MDCK-MRP1 (Madin-Darby Canine Kidney cells, gift of Prof. P. Borst, NKI-AVL)
T2 sequence (P33527 whole entry): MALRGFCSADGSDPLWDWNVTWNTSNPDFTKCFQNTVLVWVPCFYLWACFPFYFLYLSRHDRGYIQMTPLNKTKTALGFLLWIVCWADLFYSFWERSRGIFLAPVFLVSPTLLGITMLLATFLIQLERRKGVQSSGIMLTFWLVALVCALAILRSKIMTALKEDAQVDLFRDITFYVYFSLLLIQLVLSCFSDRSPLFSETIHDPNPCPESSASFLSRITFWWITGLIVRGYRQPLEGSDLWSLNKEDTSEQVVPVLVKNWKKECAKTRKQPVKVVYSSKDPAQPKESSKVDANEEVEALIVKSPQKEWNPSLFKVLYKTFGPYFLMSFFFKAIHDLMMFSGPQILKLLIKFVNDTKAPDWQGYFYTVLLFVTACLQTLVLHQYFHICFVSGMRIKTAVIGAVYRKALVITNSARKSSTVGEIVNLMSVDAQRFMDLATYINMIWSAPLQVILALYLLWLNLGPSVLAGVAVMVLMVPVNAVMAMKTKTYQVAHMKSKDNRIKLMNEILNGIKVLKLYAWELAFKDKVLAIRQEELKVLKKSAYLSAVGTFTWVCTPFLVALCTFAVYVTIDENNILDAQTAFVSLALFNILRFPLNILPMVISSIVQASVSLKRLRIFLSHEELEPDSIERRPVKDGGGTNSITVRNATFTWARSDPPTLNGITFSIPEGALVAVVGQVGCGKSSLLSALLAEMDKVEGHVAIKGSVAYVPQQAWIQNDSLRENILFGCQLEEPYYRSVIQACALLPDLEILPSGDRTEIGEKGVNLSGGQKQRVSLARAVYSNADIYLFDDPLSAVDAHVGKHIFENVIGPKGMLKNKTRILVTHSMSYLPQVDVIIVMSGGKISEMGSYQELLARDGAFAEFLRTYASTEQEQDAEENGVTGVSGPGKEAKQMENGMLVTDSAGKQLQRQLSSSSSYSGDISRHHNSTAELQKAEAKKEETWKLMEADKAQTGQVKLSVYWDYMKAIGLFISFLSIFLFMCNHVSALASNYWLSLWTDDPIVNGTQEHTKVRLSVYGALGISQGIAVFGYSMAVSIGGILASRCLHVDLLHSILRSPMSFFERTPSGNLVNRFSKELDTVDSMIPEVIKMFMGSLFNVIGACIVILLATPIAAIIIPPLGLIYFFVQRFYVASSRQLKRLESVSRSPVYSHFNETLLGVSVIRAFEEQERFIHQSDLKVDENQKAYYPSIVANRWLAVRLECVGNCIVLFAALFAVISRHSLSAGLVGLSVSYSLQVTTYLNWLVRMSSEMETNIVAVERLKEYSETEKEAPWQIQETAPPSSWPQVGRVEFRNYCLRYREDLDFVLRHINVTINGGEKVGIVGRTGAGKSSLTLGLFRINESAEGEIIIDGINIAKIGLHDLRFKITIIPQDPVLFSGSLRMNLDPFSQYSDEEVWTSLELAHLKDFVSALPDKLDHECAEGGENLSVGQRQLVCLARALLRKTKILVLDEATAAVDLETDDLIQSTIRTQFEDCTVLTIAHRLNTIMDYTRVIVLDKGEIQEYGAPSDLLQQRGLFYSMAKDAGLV
Experimental: These experiments were carried out as previously described by Teodori et al. with minor modifications. Each cell line (30 000 cells per well) was seeded into black CulturePlate 96/wells plate with 100 µL medium and allowed to become confluent overnight. 100 µL of test compounds were solubilised in culture medium and added to monolayers, with final concentrations ranging from 1 nM to 100 µM. 96/Wells plate was incubated for 30 min in a humidified atmosphere 5% CO2 at 37 °C. Calcein-AM was added in 100 µL of Phosphate Buffered Saline (PBS) to yield a final concentration of 2.5 µM and plate was incubated for 30 min in a humidified atmosphere 5% CO2 at 37 °C. Each well was washed 3 times with ice cold PBS. Saline buffer was added to each well and the plate was read with Victor3 (PerkinElmer) at excitation and emission wavelengths of 485 and 535 nm, respectively. In these experimental conditions, Calcein cell accumulation in the absence and in the presence of tested compounds was evaluated and fluorescence basal level was estimated with untreated cells. In treated wells the increase of fluorescence with respect to basal level was measured. EC50 values were determined by fitting the fluorescence increase percentage versus log[dose].
The interaction potency between the designed compounds and P-gp was evaluated by measuring the transport inhibition of the pro-fluorescent probe Calcein-AM, that is a P-gp substrate, in a cell line overexpressing P-gp (MDCK-MDR1)[47]. The P-gp interacting profile was further investigated with two other assays: the Apparent Permeability (Papp) determination (BA/AB) in Caco-2 cell monolayer[48]^,[49], and the ATP cell depletion in the MDCK-MDR1 cell line[50]. Taking into account the results of the combined tests, an interacting compound can be classified as substrate or inhibitor. Papp determination measures the ratio between two fluxes: from the basolateral to apical compartments (BA, representative of passive diffusion) and from the apical to basolateral compartments (AB, representative of active transport). […] In the same manner, if (BA/AB) >2, the compound should probably be classified as a substrate. […] The selectivity of ligands 1–26 was evaluated by detecting their activity towards the other ABC transporters MRP1 and BCRP, by measuring the inhibition of the efflux of Calcein-AM (i.e., also a MRP1 substrate) in cells overexpressing MRP1 (MDCK-MRP1 cells), and the inhibition of the efflux of the fluorescent probe Hoechst 33342 (i.e. a BCRP substrate) in cells overexpressing BCRP (MDCK-BCRP cells), respectively.

MDCK-MDR1 cells = test: Co-administration assay with doxorubicin (MTT), MDCK-MDR1 cells; assay type: cell-based, canine; details: compound 10 µM + 10 µM doxorubicin, MDCK-MDR1
Experimental: (§1) The co-administration assay with doxorubicin was performed in MDCK-MDR1, HT29, HT29/DX, A549 and A549/DX cells at 48 h. On day 1, 10,000 cells/well were seeded into 96-well plates in a volume of 100 µL of fresh medium. On day 2, the tested drug was added alone to the cells at different concentrations (ranging from 40 nM to 10 µM). On day 3, the medium was removed and the drug at the same concentrations was added alone and in co-administration with 10 µM doxorubicin to the cells. After the established incubation time with the tested drug, MTT (0.5 mg/mL) was added to each well, and after 3 − 4 h incubation at 37 °C, the supernatant was removed. The formazan crystals were solubilised using 100 µL of DMSO/EtOH (1:1), and the absorbance values at 570 and 630 nm were determined on the microplate reader HTX Synergy (Bio-Tek Instruments).

HT29 cells = test: Co-administration assay with doxorubicin (MTT), HT29 cells; assay type: cell-based, human; details: compound 10 µM + 10 µM doxorubicin
Experimental: as §1

HT29/DX cells = test: Co-administration assay with doxorubicin (MTT), HT29/DX cells; assay type: cell-based, human; details: compound 10 µM + 10 µM doxorubicin
Experimental: as §1

[2] = test system: HT29, A549, HT29/DX and A549/DX cells; test: Preliminary cytotoxicity of compounds alone in cancer cell lines; assay type: cell-based, human; details: all the tested concentrations, preliminary assays (data not shown)
Experimental: as §1
The efficacy of the compounds was next tested in cancer cell lines with various levels of P-gp, as the human adenocarcinoma colon cells (HT29) and non-small cell lung cancer cells (A549) displaying low amount of P-gp, and their resistant counterparts HT29/DX and A549/DX, with a high amount of P-gp[53]. In preliminary assays, we verified that 3 and 8 were not cytotoxic at all the tested concentration (data not shown).

A549/DX cells = test: Co-administration assay with doxorubicin (MTT), A549/DX cells; assay type: cell-based, human; details: compound 10 µM + 10 µM doxorubicin
Experimental: as §1

A549 cells = test: Co-administration assay with doxorubicin (MTT), A549 cells; assay type: cell-based, human; details: compound 10 µM + 10 µM doxorubicin
Experimental: as §1

SMILES | EC50 (P-gp) | efflux ratio at 120 min, 100 µM [1] | other results
COc1cc2c(cc1OC)CN(CCc1ccc(OC(=O)c3c(OC)ccc4ccccc34)cc1)CC2 [Compound 20, 4–(2-(6,7-Dimethoxy-3,4-dihydroisoquinolin-2(1H)-yl)ethyl)phenyl 2-methoxy-1-naphthoate] | 110 ± 20 nM | 4.8 | 
COc1cc2c(cc1OC)CN(CCc1ccc(NC(=O)c3ccc(OC)c(OC)c3OC)cc1)CC2 [Compound 1, N-(4–(2-(6,7-dimethoxy-3,4-dihydroisoquinolin-2(1H)-yl)ethyl)phenyl)-2,3,4-trimethoxybenzamide] | 530 ± 100 nM | 7 | 
COc1cc2c(cc1OC)CN(CCc1ccc(OC(=O)c3cccc4ccccc34)cc1)CC2 [Compound 19, 4–(2-(6,7-Dimethoxy-3,4-dihydroisoquinolin-2(1H)-yl)ethyl)phenyl 1-naphthoate] | 840 ± 160 nM | 5.1 | 
COc1ccc(C(=O)Oc2ccc(CCN3CCc4cc(OC)c(OC)cc4C3)cc2)c(OC)c1 [Compound 16, 4–(2-(6,7-Dimethoxy-3,4-dihydroisoquinolin-2(1H)-yl)ethyl)phenyl 2,4-dimethoxybenzoate] | 100 ± 20 nM | 7.1 | EC50 (MRP1): 87000 ± 17000 nM
COc1cc2c(cc1OC)CN(CCc1ccc(OC(=O)c3cccc(OC)c3OC)cc1)CC2 [Compound 18, 4–(2-(6,7-Dimethoxy-3,4-dihydroisoquinolin-2(1H)-yl)ethyl)phenyl 2,3-dimethoxybenzoate] | 340 ± 70 nM | 4.1 | 
COc1cc2c(cc1OC)CN(CCc1ccc(OC(=O)c3ccccc3OC)cc1)CC2 [Compound 15, 4–(2-(6,7-Dimethoxy-3,4-dihydroisoquinolin-2(1H)-yl)ethyl)phenyl 2-methoxybenzoate] | 730 ± 140 nM | 5.4 | 
COc1cc2c(cc1OC)CN(CCc1ccc(OC(=O)c3ccc(OC)c(OC)c3OC)cc1)CC2 [Compound 14, 4–(2-(6,7-Dimethoxy-3,4-dihydroisoquinolin-2(1H)-yl)ethyl)phenyl 2,3,4-trimethoxybenzoate] | 360 ± 69 nM | 9 | EC50 (MRP1): 69700 ± 13900 nM
COc1cc2c(cc1OC)CN(CCc1ccc(OC(=O)c3c(OC)c(OC)cc4ccccc34)cc1)CC2 [Compound 21, 4–(2-(6,7-Dimethoxy-3,4-dihydroisoquinolin-2(1H)-yl)ethyl)phenyl 2,3-dimethoxy-1-naphthoate] | 100 ± 20 nM | 5.4 | 
COc1cc2c(cc1OC)CN(CCc1ccc(NC(=O)c3cccc(OC)c3OC)cc1)CC2 [Compound 5, N-(4–(2-(6,7-dimethoxy-3,4-dihydroisoquinolin-2(1H)-yl)ethyl)phenyl)-2,3-dimethoxybenzamide] | 260 ± 50 nM | 5 | 
COc1ccc(C(=O)Nc2ccc(CCN3CCc4cc(OC)c(OC)cc4C3)cc2)c(OC)c1 [Compound 3, N-(4–(2-(6,7-dimethoxy-3,4-dihydroisoquinolin-2(1H)-yl)ethyl)phenyl)-2,4-dimethoxybenzamide] | 40.5 ± 8 nM | 7.4 | cytotoxicity, co-administration with doxorubicin (MDCK-MDR1 cells): 77%; reduction of cell viability, co-administration with doxorubicin (HT29 cells): 5%; inhibition at 30 min, 10 µM (P-gp): 90 to 95%; reduction of cell viability, co-administration with doxorubicin (HT29/DX cells): 35%; cytotoxicity, compound alone [2]: not cytotoxic; reduction of cell viability, co-administration with doxorubicin (A549/DX cells): 40%; MRP1, percentage of the effect (MRP1): 31%^d; reduction of cell viability, co-administration with doxorubicin (A549 cells): 25%
COc1cc2c(cc1OC)CN(CCc1ccc(NC(=O)c3c(OC)c(OC)cc4ccccc34)cc1)CC2 [Compound 8, N-(4–(2-(6,7-dimethoxy-3,4-dihydroisoquinolin-2(1H)-yl)ethyl)phenyl)-2,3-dimethoxy-1-naphthamide] | 47.8 ± 9.3 nM | 5.5 | cytotoxicity, co-administration with doxorubicin (MDCK-MDR1 cells): around 50%; reduction of cell viability, co-administration with doxorubicin (HT29 cells): 10%; inhibition at 30 min, 10 µM (P-gp): 90 to 95%; reduction of cell viability, co-administration with doxorubicin (HT29/DX cells): 29%; cytotoxicity, compound alone [2]: not cytotoxic; reduction of cell viability, co-administration with doxorubicin (A549/DX cells): 49%; MRP1, percentage of the effect (MRP1): 47%^d; reduction of cell viability, co-administration with doxorubicin (A549 cells): 25%
